According to US20070186288A1, “Zebrafish models of acute myelogenous leukemia” (priority 2005, published 2007):
“Also recorded” adds a separate entry of the source. Where two headings read alike, the source gives them in different places.

Key:
[1] = test system: AML1-ETO phenotype in Tg(hsp:AML1-ETO) zebrafish embryos; assay type: in vivo; conditions: for percentage of AML1-ETO-expressing embryos without circulating blood: 500 μM morpholino solution injected into 1-cell stage embryos, heat treated at 4, 16, 24 hpf, scored at 44 hpf, non-injected control 90.2%
Procedure: The Petri dishes containing zebrafish embryos were transferred from the growth temperature of 23-28.5° C. to a 37-42° C. incubator and incubated for 1 hour before returning them back to the normal temperature. The heat treatment may be repeated three to four times over 12-hour intervals as specified below. The percentages of embryos with phenotype were scored by visual inspection of the loss of circulating blood in the embryos after 40 hpf.
The morpholino antisense oligonucleotides hAML1-MO (5′-[…]; SEQ ID NO:3), which targets the translation start codon of human AML1, and zTIS11b-MO (5′-[…]; SEQ ID NO:4), which targets the splice donor site of zebrafish TIS11b transcripts, were obtained from Gene-Tools, LLC. For microinjection, 500 μM hAML1-MO or 200 μM zTIS11b-MO in 0.3× Danieau's buffer (17 mM NaCl, 2 mM KCl, 0.12 mM MgSO4, 1.8 mM Ca(NO3)2 and 1.5 mM HEPES, pH 7.6) were prepared and injected as described (Nasevicius et al., Nat. Genet. 26:216-220, 2000).
In AML1-ETO-expressing fish, the absence of circulating cells and the accumulation of non-circulating hematopoietic cells in the ICM are readily detected by eye. Therefore, circulation may be a simple surrogate phenotype for detecting the presence or absence of the AML1-ETO phenotype. To confirm that the loss-of-circulation phenotype is dependent on the inducible expression of AML1-ETO in the transgenic zebrafish, we tested whether this phenotype can be rescued by blocking AML1-ETO expression using an antisense morpholino oligonucleotide (hAML1-MO) complementary to the translation start site of the human AML1-ETO mRNA. Homogeneous transgenic embryo clutches were obtained from crosses between homozygous Tg(hsp:AML1-ETO) and wild-type fish. These embryos were heat treated at 4, 16, and 24 hpf, and were then scored at 44 hpf. […] On the other hand, in the heat-treated Tg(hsp:AML1-ETO) fish embryos, most of the blood cells accumulate in the ICM, especially at the location close to the end of the yolk extension, and fail to enter circulation. However, injection of HAML1-MO into 1-cell stage embryos restores the circulation in the transgenic embryos.
Zebrafish embryos readily absorb small molecules from the surrounding medium, rendering them a powerful tool to assess pharmacological efficacy (Peterson et al., Methods Cell. Biol. 76:569-591, 2004; Zon et al., Nat. Rev. Drug Discov. 4:35-44, 2005). […] While ATRA is generally not very effective in differentiating t(8;21) leukemic cells, complete remission of a patient with t(8;21) translocation has been reported (Chen et al., Chin. Med. J. (Engl). 115:58-61, 2002). We tested the efficacy of ATRA in reversing the zebrafish AML1-ETO phenotype. In this experiment, we heat-shocked the embryos three times instead of four times at 37° C. in order to reduce the phenotypic penetrance in the Tg(hsp:AML1-ETO) fish embryos to around 80%. Meanwhile, ATRA was added at 24 hpf.
The upregulation of TIS11b had been hypothesized to contribute to AML pathogenesis, but this hypothesis had not been tested. To elucidate the role of TIS11b in the AML1-ETO phenotype, we knocked down TIS11b by injecting an antisense morpholino oligonucleotide complementary to the […] of the zebrafish TIS11b gene (zTIS11b-MO).

[2] = test system: hematopoietic cells of Tg(hsp:AML1-ETO) zebrafish embryos; test: Cytology (Wright-Giemsa) of blood extracted from Tg(hsp:AML1-ETO) embryos; assay type: in vivo; conditions: 200 μM morpholino solution injected; mild heat treatment
Description: Blood cells were collected from anesthetized wild-type and AML1-ETO embryos at 40 hpf by transferring live fish to phosphate buffered saline containing 50 U/ml heparin, 1% bovine serum albumin, and 0.006% tricaine. Tails were excised posterior to the yolk extension (at approximately the site of the posterior ICM) using a scalpel. Blood cells were extruded from the site of excision using the blunt edge of the scalpel and collected using a micropipette.
For cytological analyses, blood cells collected from the zebrafish embryos were transferred onto glass slides by cytospin and stained by Protocol® Wright-Giemsa stain (Fisher Diagnostics) following manufacturer's instruction. To label red blood cells in the zebrafish embryos, whole-mount cytochemistry staining with […] was performed as previously described (Weinstein et al., Development 123:303-309, 1996).

Compound: CC1=C(/C=C/C(C)=C/C=C/C(C)=C/C(=O)O)C(C)(C)CCC1 [ATRA, all-trans retinoic acid]
- percentage of embryos possessing circulation ([1]; 10 pM added at 24 hpf, three 1-hour 37° C. heat treatments at 4, 16, 24 hpf, scored at 40 hpf, vehicle 20%, p=0.0085): 36%
- degree of rescue at higher concentrations ([1]; concentrations above 10 pM (range tested 1 pM to 1 nM)): did not increase

Compound: hAML1-MO: morpholino antisense oligonucleotide 5′-CTGGCATCTACGGGGATACGCATCA (SEQ ID NO:3), targets the translation start codon of human AML1 (all phosphorodiamidate morpholino (PMO); listed as Homo sapiens)
- percentage of AML1-ETO-expressing embryos without circulating blood [1]: less than 10%
- percentage of AML1-ETO-expressing embryos without circulating blood ([1]; listed as HAML1-MO): 6.7%

Compound: zTIS11b-MO: morpholino antisense oligonucleotide 5′-ACTTTTCTCCATACCTTGTTGTTGA (SEQ ID NO:4), targets the splice donor site of zebrafish TIS11b transcripts (all phosphorodiamidate morpholino (PMO))
- blast cells in blood of injected Tg(hsp:AML1-ETO) embryos by cytological analysis [2]: accumulation of hematopoietic blast cells; also recorded: abundant immature blast-like cells
- percentage of injected Tg(hsp:AML1-ETO) embryos exhibiting the AML1-ETO (lack of circulation) phenotype ([1]; 200 μM morpholino solution injected, mild heat treatment, uninjected less than 30%): 98%
